Data set [1] concerns the target Phosphatidylinositol 4,5-bisphosphate 3-kinase catalytic subunit alpha isoform (Homo sapiens, UniProt P42336).
Description: Inhibition of PI3Kalpha (unknown origin) using PIP2 as substrate measured after 30 mins by TR-FRET assay
Data set [2] can be described thus: Metabolic stability in human liver microsomes assessed as parent compound remaining at 1 uM measured at 15 mins in presence of phase 1 metabolism cofactors by LC-MS/MS analysis. It counts as ADME, Microsome. The settings on record: read-out: Stability. Background: Liver microsomes are a subcellular fraction often used to study metabolism.
For another data set, the target named is mTORC1 (Homo sapiens, UniProt P42345). Put plainly: Inhibition of mTORC1 in human A431 cells assessed as S6RP phosphorylation incubated for 3 hrs by HTRF assay. It counts as cell-based. (In general: Time-resolved FRET reads energy transfer from a long-lived donor to a nearby acceptor.)
Data set [3] in a line: Kinetic aqueous solubility of compound in phosphate buffer at pH 7.4 at 100 uM at 20 degree C shaken for 24 hrs by HPLC analysis. The class given is physicochemical. The settings on record: read-out: Kinetic_solubility.
A short description of data set [4]: Lipophilicity, ChromlogD of compound at 0.5 mM at pH 6.5 by UPLC-UV analysis. The settings on record: buffer, pH 6.5, 500 µM.
Data set [5] has as its target Serine/threonine-protein kinase mTOR (Homo sapiens, UniProt P42345). The experiment in a line: Inhibition of human recombinant GST-tagged mTOR catalytic domain (1360 to 2549 residues) expressed in baculovirus expression system using GFP-4E-BP1 peptide as substrate incubated for 1 hr by LanthaScreen assay.
The target in a further data set is mTORC2 (Homo sapiens, UniProt P42345). The experiment in a line: Inhibition of mTORC2 in human A431 cells assessed as AKT phosphorylation at S473 residue incubated for 3 hrs by HTRF assay. The class given is cell-based.
Data set [6] is described as follows: Hepatic intrinsic clearance in human Hepatocytes assessed per at 1 uM measured upto 90 mins by LC-MS/MS analysis. The class given is ADME, cell-based, Hepatocyte. To be noted: 1.5 h.

Structures are written as SMILES. In brackets after ≈: the same amount, converted by molar mass.

Sequence of Phosphatidylinositol 4,5-bisphosphate 3-kinase catalytic subunit alpha isoform (P42336 whole entry, canonical isoform): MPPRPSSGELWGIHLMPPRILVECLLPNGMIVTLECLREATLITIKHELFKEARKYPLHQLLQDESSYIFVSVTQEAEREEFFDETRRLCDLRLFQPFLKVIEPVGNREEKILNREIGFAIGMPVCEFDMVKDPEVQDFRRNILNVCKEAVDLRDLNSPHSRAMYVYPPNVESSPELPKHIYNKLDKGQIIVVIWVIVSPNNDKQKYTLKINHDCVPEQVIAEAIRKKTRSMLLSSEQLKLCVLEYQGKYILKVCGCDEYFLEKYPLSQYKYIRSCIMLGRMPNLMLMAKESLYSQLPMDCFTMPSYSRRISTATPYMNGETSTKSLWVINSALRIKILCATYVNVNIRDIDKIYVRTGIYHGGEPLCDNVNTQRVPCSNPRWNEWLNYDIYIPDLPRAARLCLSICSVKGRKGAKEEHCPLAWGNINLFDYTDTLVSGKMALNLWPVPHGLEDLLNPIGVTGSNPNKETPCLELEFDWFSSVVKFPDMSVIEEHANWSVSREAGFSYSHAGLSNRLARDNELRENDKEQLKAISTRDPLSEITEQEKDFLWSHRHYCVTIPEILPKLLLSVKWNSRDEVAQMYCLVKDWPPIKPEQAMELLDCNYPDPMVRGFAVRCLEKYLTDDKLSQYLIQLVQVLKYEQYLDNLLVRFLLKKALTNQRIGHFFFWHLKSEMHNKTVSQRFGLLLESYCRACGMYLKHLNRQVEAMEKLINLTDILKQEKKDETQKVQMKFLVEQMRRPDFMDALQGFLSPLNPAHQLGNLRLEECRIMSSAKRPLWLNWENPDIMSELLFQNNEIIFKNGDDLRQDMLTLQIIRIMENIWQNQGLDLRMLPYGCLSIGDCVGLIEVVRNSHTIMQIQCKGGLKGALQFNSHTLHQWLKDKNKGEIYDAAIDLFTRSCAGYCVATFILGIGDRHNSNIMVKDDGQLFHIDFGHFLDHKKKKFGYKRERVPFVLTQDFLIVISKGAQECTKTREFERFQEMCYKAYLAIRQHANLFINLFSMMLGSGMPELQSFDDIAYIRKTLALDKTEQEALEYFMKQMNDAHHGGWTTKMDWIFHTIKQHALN

For the compound `COc1nc(N)nc2c1c(-c1ccc3oc(N)nc3c1)nn2C(C)C`, the Ki (usually a measure of affinity in units of concentration, obtained from inhibition or displacement) turned out to be 250 nM in data set [1] and 370 nM in data set [5]. Further, in data set [2], the remaining at 0.25 h, 1 µM is > 95%. In addition, the IC50 – broadly, the point on the concentration scale where inhibition reaches its midpoint – at mTORC1 was determined as 420 nM; on mTORC2 it was 680 nM. The solubility kinetic at 24 h, 100 µM in data set [3] is < 1 µM. The same compound came in with a ChromlogD6.5 in data set [4] of 1.6.
`CC(C)n1nc(-c2ccc3oc(N)nc3c2)c2c(F)nc(N)nc21` yielded a CLH in data set [6] of 57 µL/min. Further, the results for the Ki in data set [1] and in data set [5] were 2600 nM and 13 nM, respectively. Also, the remaining at 0.25 h, 1 µM in data set [2] was 83%. The IC50 on mTORC1 is 40 nM; on mTORC2, 80 nM. Further, the solubility kinetic at 24 h, 100 µM in data set [3] is < 1 µM. The compound also came in with a ChromlogD6.5 in data set [4] of 1.8.
For the compound `CC(C)n1nc(-c2ccc3oc(N)nc3c2)c2c(CO)nc(N)nc21`, the CLH in data set [6] was < 5 µL/min. The Ki in data set [1] was > 10000 nM; in data set [5], 4000 nM. Moreover, the remaining at 0.25 h, 1 µM in data set [2] was > 95%. Besides, the solubility kinetic at 24 h, 100 µM in data set [3] worked out at 82 µM (≈ 27.8 µg/mL). In data set [4], this compound yielded a ChromlogD6.5 of 0.2.
In the case of `CC(C)n1nc(-c2ccc3oc(N)nc3c2)c2c(=O)[nH]c(N(C)C)nc21`, the CLH in data set [6] is < 5 µL/min. Besides, the figures for the Ki in data set [1] and in data set [5] were > 10000 nM and 1700 nM, respectively. Besides, in data set [2], the remaining at 0.25 h, 1 µM was determined as 90%. For the same compound, in data set [3], the solubility kinetic at 24 h, 100 µM stood at 2 µM (≈ 0.707 µg/mL). For the same compound, in data set [4], the ChromlogD6.5 is on record as 2.1.
On to `Cc1nc(N)nc2c1c(-c1ccc3oc(N)nc3c1)nn2C(C)C`, for which, in data set [6], the CLH is < 5 µL/min. Moreover, the results for the Ki in data set [1] and in data set [5] were 990 nM and 62 nM, respectively. The remaining at 0.25 h, 1 µM in data set [2] was > 95%. Further, the values for the IC50 at mTORC1 and at mTORC2 were 40 nM and 200 nM, respectively. The solubility kinetic at 24 h, 100 µM in data set [3] turned out to be 74 µM (≈ 23.9 µg/mL). Moreover, the ChromlogD6.5 in data set [4] was 0.8.
With `CC(C)n1nc(-c2ccc3oc(N)nc3c2)c2c(C(F)(F)F)nc(N)nc21`, the CLH in data set [6] was < 5 µL/min. The results for the Ki in data set [1] and in data set [5] were > 10000 nM and 2300 nM, respectively. Also, the remaining at 0.25 h, 1 µM in data set [2] is > 95%. Moreover, the solubility kinetic at 24 h, 100 µM in data set [3] was < 1 µM. The compound also registered a ChromlogD6.5 in data set [4] of 2.4.
Turning to `CCc1nc(N)nc2c1c(-c1ccc3oc(N)nc3c1)nn2C(C)C`, the CLH in data set [6] was < 5 µL/min. In addition, the Ki is 85 nM in data set [1] and 50 nM in data set [5]. In addition, the remaining at 0.25 h, 1 µM in data set [2] amounted to 93%. Also, the results for the IC50 on mTORC1 and at mTORC2 were 60 nM and 140 nM, respectively. In addition, in data set [3], the solubility kinetic at 24 h, 100 µM turned out to be 62 µM (≈ 20.9 µg/mL). The compound further had a ChromlogD6.5 in data set [4] of 1.2.
In the case of `CNc1nc2c(c(-c3ccc4oc(N)nc4c3)nn2C(C)C)c(=O)[nH]1`, in data set [6], the CLH is < 5 µL/min. For the same compound, the Ki in data set [1] was > 10000 nM; in data set [5], 190 nM. The remaining at 0.25 h, 1 µM in data set [2] is > 95%. For the same compound, the IC50 was 240 nM on mTORC1 and 360 nM on mTORC2. The solubility kinetic at 24 h, 100 µM in data set [3] is < 1 µM. Also, in data set [4], the ChromlogD6.5 is 1.5.
Regarding `CC(C)n1nc(-c2ccc3oc(N)nc3c2)c2c(N)ncnc21` [SAPANISERTIB], the CLH in data set [6] is < 5 µL/min. In addition, the remaining at 0.25 h, 1 µM in data set [2] is > 95%. In addition, the solubility kinetic at 24 h, 100 µM in data set [3] is 82 µM (≈ 25.4 µg/mL). In data set [4], this compound came in with a ChromlogD6.5 of 0.4.
As to `Cc1nc2c(c(-c3ccc4oc(N)nc4c3)nn2C(C)C)c(=O)[nH]1`, the CLH in data set [6] was < 5 µL/min. Moreover, the Ki in data set [1] was > 10000 nM; in data set [5], 40 nM. The remaining at 0.25 h, 1 µM in data set [2] was > 95%. Moreover, the IC50 on mTORC1 is 45 nM; at mTORC2, 90 nM. Further, the solubility kinetic at 24 h, 100 µM in data set [3] turned out to be 3 µM (≈ 0.973 µg/mL). The compound also had a ChromlogD6.5 in data set [4] of 1.2.
In turn, `CC(C)n1nc(-c2ccc3oc(N)nc3c2)c2c(Br)nc(N)nc21` returned a CLH in data set [6] of 55 µL/min. The values for the Ki in data set [1] and in data set [5] were 1000 nM and 21 nM, respectively. Further, the remaining at 0.25 h, 1 µM in data set [2] came to 94%. The IC50 was determined as 35 nM on mTORC1 and 60 nM on mTORC2. In addition, in data set [3], the solubility kinetic at 24 h, 100 µM was found to be 4 µM (≈ 1.55 µg/mL). For the same compound, the ChromlogD6.5 in data set [4] amounted to 1.8.
In the case of `CC(C)n1nc(-c2ccc3oc(N)nc3c2)c2c(C#N)nc(N)nc21`, the CLH in data set [6] is < 5 µL/min. In addition, the figures for the Ki in data set [1] and in data set [5] were > 10000 nM and 2200 nM, respectively. In data set [2], the remaining at 0.25 h, 1 µM is > 95%. For the same compound, the solubility kinetic at 24 h, 100 µM in data set [3] is < 1 µM. The ChromlogD6.5 in data set [4] is on record as 1.8.
`CCCCn1nc(-c2ccc3oc(N)nc3c2)c2c(Cl)nc(N)nc21`: the Ki was 4600 nM in data set [1] and 11 nM in data set [5]. The figures for the IC50 at mTORC1 and at mTORC2 were 7 nM and 20 nM, respectively. For the same compound, in data set [3], the solubility kinetic at 24 h, 100 µM was < 1 µM. Besides, the ChromlogD6.5 in data set [4] turned out to be 2.3.
For the compound `CC(C)n1nc(-c2ccc3oc(N)nc3c2)c2cnc(N)nc21`, in data set [6], the CLH came to 150 µL/min. The Ki in data set [1] was 780 nM; in data set [5] it was 6 nM. In data set [2], the remaining at 0.25 h, 1 µM stood at 94%. Moreover, the IC50 on mTORC1 is 7 nM; at mTORC2 it was 15 nM. For the same compound, in data set [3], the solubility kinetic at 24 h, 100 µM was determined as 1.6 µM (≈ 0.495 µg/mL). In data set [4], this compound showed a ChromlogD6.5 of 1.1.
In the case of `CC(C)n1nc(-c2ccc3oc(N)nc3c2)c2c(Cl)nc(N)nc21`, the CLH in data set [6] is 11 µL/min. Moreover, the affinity in data set [1], expressed as Ki, was 920 nM. In addition, the remaining at 0.25 h, 1 µM in data set [2] turned out to be 92%. Also, the values for the IC50 at mTORC1 and on mTORC2 were 8 nM and 20 nM, respectively. In addition, the solubility kinetic at 24 h, 100 µM in data set [3] was determined as 2 µM (≈ 0.688 µg/mL). The same compound registered a ChromlogD6.5 in data set [4] of 1.7.
On to `CC(C)n1nc(-c2ccc3oc(N)nc3c2)c2c(=O)[nH]c(N)nc21`, for which, in data set [6], the CLH is < 5 µL/min. Besides, the Ki in data set [1] came to 3200 nM; in data set [5] it was 20 nM. For the same compound, the remaining at 0.25 h, 1 µM in data set [2] was > 95%. Also, the IC50 on mTORC1 was 40 nM; on mTORC2, 200 nM. The solubility kinetic at 24 h, 100 µM in data set [3] turned out to be 9.2 µM (≈ 2.99 µg/mL). Moreover, the ChromlogD6.5 in data set [4] is 0.4.
Turning to `CC(C)n1nc(-c2ccc3oc(N)nc3c2)c2c(N)nc(N)nc21`, the CLH in data set [6] was < 5 µL/min. Further, the Ki was 150 nM in data set [1] and 4 nM in data set [5]. Besides, the remaining at 0.25 h, 1 µM in data set [2] is > 95%. In addition, the IC50 at mTORC1 is 4 nM; on mTORC2, 11 nM. Moreover, the solubility kinetic at 24 h, 100 µM in data set [3] is 88 µM (≈ 28.5 µg/mL). The ChromlogD6.5 in data set [4] was -0.1.
For the compound `CCCCn1nc(-c2ccc3oc(N)nc3c2)c2c(C)nc(N)nc21`, the Ki is 2200 nM in data set [1] and 33 nM in data set [5]. The IC50 on mTORC1 stood at 30 nM; on mTORC2, 90 nM. The solubility kinetic at 24 h, 100 µM in data set [3] came to 5.2 µM (≈ 1.75 µg/mL). Besides, the ChromlogD6.5 in data set [4] is reported as 1.4.

(Values after ChEMBL document CHEMBL4406914, “Impact of Minor Structural Modifications on Properties of a Series of mTOR Inhibitors” (ACS Med Chem Lett, 2019).)
